Test results taken from US20130230459A1, “RADIOLABELLED mGluR2 PET LIGANDS” (Janssen Pharmaceuticals, Inc., priority 2010, published 2013).
Values joined by “and” are separate entries in the source; they are usually repeats but may differ in a detail not shown here. Equal entries are not always repeated.

What was measured:
[1] = Biodistribution studies of 11C tracers; type: in vivo, Wistar rats; settings: for SUV Blood / SUV Cerebellum / SUV Cerebrum total / SUV Cortex / SUV Hippocampus / SUV Striatum: normalized for body weight;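 as to Total brain uptake: percentage of injected dose (% ID)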
Outline: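 Healthy male Wistar rats (n=3 per time point) received about 11 or 22 MBq tracer i.v. via tail vein under isoflurane; sacrificed at 2, 30 and 60 min p.i. Gamma counting of blood and organs gave %ID and %ID/g, with blood taken as 7% of body mass.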

mGluR2 = biological target: T1, mGluR2 (Rattus norvegicus, UniProt P31421); assay: MicroPET imaging: baseline, blocking and chase experiments; type: in vivo, Wistar rats
T1 construct: from tissue; host or cells: brain of living male Wistar rats (in vivo microPET)
T1 sequence (P31421 19-872): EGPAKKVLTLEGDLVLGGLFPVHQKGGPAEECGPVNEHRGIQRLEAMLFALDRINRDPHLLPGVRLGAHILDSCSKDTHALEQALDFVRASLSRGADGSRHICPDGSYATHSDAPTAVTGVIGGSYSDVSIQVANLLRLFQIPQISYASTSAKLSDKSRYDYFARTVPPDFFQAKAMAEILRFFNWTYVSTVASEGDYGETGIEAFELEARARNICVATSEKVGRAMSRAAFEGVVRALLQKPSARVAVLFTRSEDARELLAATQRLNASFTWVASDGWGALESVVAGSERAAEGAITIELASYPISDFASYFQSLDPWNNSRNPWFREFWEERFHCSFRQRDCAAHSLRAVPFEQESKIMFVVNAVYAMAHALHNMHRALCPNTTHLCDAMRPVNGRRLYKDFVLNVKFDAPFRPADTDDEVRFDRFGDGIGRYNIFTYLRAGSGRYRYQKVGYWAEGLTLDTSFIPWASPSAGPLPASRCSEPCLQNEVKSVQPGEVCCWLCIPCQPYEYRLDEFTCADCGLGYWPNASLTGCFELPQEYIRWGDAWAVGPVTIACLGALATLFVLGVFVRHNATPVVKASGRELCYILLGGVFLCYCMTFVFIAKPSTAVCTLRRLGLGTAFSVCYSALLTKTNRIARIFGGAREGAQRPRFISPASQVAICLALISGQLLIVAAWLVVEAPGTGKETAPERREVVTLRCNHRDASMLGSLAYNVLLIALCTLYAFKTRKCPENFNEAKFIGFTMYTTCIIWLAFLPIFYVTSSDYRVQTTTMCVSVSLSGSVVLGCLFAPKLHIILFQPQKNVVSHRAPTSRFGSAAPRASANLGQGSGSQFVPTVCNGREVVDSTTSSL
Outline: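 Healthy male Wistar rats under isoflurane; 30-60 MBq [11C]tracer i.v., 90 min dynamic microPET, regional SUV time-activity curves. Self-block: B-4 10 mg/kg s.c. 30 min pre-tracer; chase: i.v. 30 min post-tracer with B-4 3 mg/kg, compound B 4, 1, 0.3 or 0.1 mg/kg, compound A 1 mg/kg or ritanserin 0.3 mg/kg.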

% ID Blood ([1]; 2 min p.i.): 6.0 % ID and 6.0 ± 1.3 % ID | % ID Carcass ([1]; 2 min p.i.): 38.5 ± 2.5 % ID | % ID Cerebellum ([1]; 2 min p.i.): 0.15 % ID and 0.149 ± 0.054 % ID | % ID Cerebrum total ([1]; 2 min p.i.): 0.46 % ID and 0.456 ± 0.114 % ID | % ID Cortex ([1]; 2 min p.i.): 0.053 ± 0.025 % ID | % ID Heart ([1]; 2 min p.i.): 4.3 ± 0.3 % ID | % ID Hippocampus ([1]; 2 min p.i.): 0.017 ± 0.005 % ID | % ID Intestines ([1]; 2 min p.i.): 8.5 ± 0.2 % ID | % ID Kidneys ([1]; 2 min p.i.): 7.8 ± 1.1 % ID | % ID Liver ([1]; 2 min p.i.): 32.3 ± 3.2 % ID | % ID Lungs ([1]; 2 min p.i.): 1.8 ± 0.1 % ID | % ID Rest of cerebrum ([1]; 2 min p.i.): 0.387 ± 0.084 % ID | % ID Spleen + Pancreas ([1]; 2 min p.i.): 1.5 ± 0.3 % ID | % ID Stomach ([1]; 2 min p.i.): 1.8 ± 0.1 % ID | % ID Striatum ([1]; 2 min p.i.): 0.026 ± 0.012 % ID | % ID Urine ([1]; 2 min p.i.): 0.1 ± 0.0 % ID | Total brain uptake ([1]; 2 min p.i.): 0.64 % ID and 0.64 ± 0.1 % ID | % ID Blood ([1]; 30 min p.i.): 3.9 ± 0.1 % ID | % ID Carcass ([1]; 30 min p.i.): 62.97 ± 2.4 % ID | % ID Cerebellum ([1]; 30 min p.i.): 0.152 ± 0.023 % ID | % ID Cerebrum total ([1]; 30 min p.i.): 0.637 ± 0.078 % ID | % ID Cortex ([1]; 30 min p.i.): 0.071 ± 0.006 % ID | % ID Heart ([1]; 30 min p.i.): 1.8 ± 0.1 % ID | % ID Hippocampus ([1]; 30 min p.i.): 0.021 ± 0.004 % ID | % ID Intestines ([1]; 30 min p.i.): 9.2 ± 1.4 % ID | % ID Kidneys ([1]; 30 min p.i.): 3.3 ± 0.2 % ID | % ID Liver ([1]; 30 min p.i.): 16.2 ± 0.4 % ID | % ID Lungs ([1]; 30 min p.i.): 0.8 ± 0.0 % ID | % ID Rest of cerebrum ([1]; 30 min p.i.): 0.511 ± 0.063 % ID | % ID Spleen + Pancreas ([1]; 30 min p.i.): 1.1 ± 0.1 % ID | % ID Stomach ([1]; 30 min p.i.): 1.8 ± 0.4 % ID | % ID Striatum ([1]; 30 min p.i.): 0.034 ± 0.005 % ID | % ID Urine ([1]; 30 min p.i.): 0.3 ± 0.0 % ID | Total brain uptake ([1]; 30 min p.i.): 0.80 ± 0.1 % ID | % ID Blood ([1]; 60 min p.i.): 3.4 % ID and 3.4 ± 0.2 % ID | % ID Carcass ([1]; 60 min p.i.): 63.7 ± 1.8 % ID | % ID Cerebellum ([1]; 60 min p.i.): 0.172 ± 0.030 % ID | % ID Cerebrum total ([1]; 60 min p.i.): 0.598 ± 0.036 % ID | % ID Cortex ([1]; 60 min p.i.): 0.070 ± 0.002 % ID | % ID Heart ([1]; 60 min p.i.): 1.2 ± 0.1 % ID | % ID Hippocampus ([1]; 60 min p.i.): 0.026 ± 0.002 % ID | % ID Intestines ([1]; 60 min p.i.): 11.8 ± 0.0 % ID | % ID Kidneys ([1]; 60 min p.i.): 2.6 ± 0.2 % ID | % ID Liver ([1]; 60 min p.i.): 13.7 ± 1.3 % ID | % ID Lungs ([1]; 60 min p.i.): 0.7 ± 0.0 % ID | % ID Rest of cerebrum ([1]; 60 min p.i.): 0.466 ± 0.033 % ID | % ID Spleen + Pancreas ([1]; 60 min p.i.): 1.4 ± 0.5 % ID | % ID Stomach ([1]; 60 min p.i.): 2.0 ± 0.4 % ID | % ID Striatum ([1]; 60 min p.i.): 0.035 ± 0.005 % ID | % ID Urine ([1]; 60 min p.i.): 0.4 ± 0.1 % ID | % ID present in liver and intestines ([1]; 60 min p.i.): 25.5 % ID | % ID present in the urinary system ([1]; 60 min p.i.): 3.0 % ID | Total brain uptake ([1]; 60 min p.i.): 0.78 ± 0.0 % ID | % reduction of SUV (total brain) due to chase (mGluR2; chase compound B 4 mg/kg i.v.): 58% | SUV (total brain) before chase (mGluR2; maximum SUV, chase compound B 4 mg/kg i.v. 30 min after tracer): 1.2 | SUV (total brain) after chase (mGluR2; minimum SUV, chase compound B 4 mg/kg i.v. 30 min after tracer): 0.5
SMILES: [11CH3]Oc1ccc(F)c(F)c1C1CCN(c2ccn3c(CC4CC4)nnc3c2Cl)CC1 [[^11C]B-10, 8-chloro-3-(cyclopropylmethyl)-7-[4-[2,3-difluoro-6-[^11C]methoxyphenyl]-1-piperidinyl]-1,2,4-triazolo[4,3-a]pyridine]
SUV Blood ([1]; 2 min p.i.): 0.90 ± 0.02 | SUV Cerebellum ([1]; 2 min p.i.): 1.59 ± 0.06 | SUV Cerebrum total ([1]; 2 min p.i.): 1.12 ± 0.03 | SUV Cortex ([1]; 2 min p.i.): 1.16 and 1.16 ± 0.04 | SUV Hippocampus ([1]; 2 min p.i.): 1.11 ± 0.08 | SUV Striatum ([1]; 2 min p.i.): 1.37 ± 0.05 | SUV Blood ([1]; 30 min p.i.): 0.50 ± 0.00 | SUV Cerebellum ([1]; 30 min p.i.): 1.68 and 1.68 ± 0.05 | SUV Cerebrum total ([1]; 30 min p.i.): 1.34 ± 0.03 | SUV Cortex ([1]; 30 min p.i.): 1.39 and 1.39 ± 0.05 | SUV Hippocampus ([1]; 30 min p.i.): 0.93 ± 0.02 | SUV Striatum ([1]; 30 min p.i.): 1.39 ± 0.03 | SUV Blood ([1]; 60 min p.i.): 0.50 ± 0.00 | SUV Cerebellum ([1]; 60 min p.i.): 1.52 ± 0.02 | SUV Cerebrum total ([1]; 60 min p.i.): 1.19 ± 0.01 | SUV Cortex ([1]; 60 min p.i.): 1.08 ± 0.01 | SUV Hippocampus ([1]; 60 min p.i.): 0.94 ± 0.01 | SUV Striatum ([1]; 60 min p.i.): 1.55 ± 0.01
